According to paper PMC9926234, “Iterative computational design and crystallographic screening identifies potent inhibitors targeting the Nsp3 macrodomain of SARS-CoV-2” (Proceedings of the National Academy of Sciences of the …, 2023):
Several values for one entry are separate records, joined by “and”; a condition that tells them apart may be missing. Identical values can stand only once.

Each compound was assayed on SARS-CoV-2 NSP3 Mac1 (assay: Overall hit call (binding in crystallographic soaking or the HTRF-based binding assay)). Details: not given.
From the text: Supplement pnas.2212931120.sd01.xlsx, sheet "Compound Summary" | column: HIT*

SMILES	HIT*
O=C(O)c1csc(CCNC(=O)c2cc3[nH]cnc3cc2F)n1 [Z5740]	Y
CNc1cnc(C(=O)N2CC(c3noc(O)n3)C2)cn1.O=C(O)C(F)(F)F [Z6567]	Y
O=C(NC1C=CC(C(=O)O)C1)c1ncnc2sccc12 (centres unmarked) [Z6645]	Y
CCNc1ncc(C(=O)NCCn2cnc(C(=O)O)c2)s1 [Z6684]	Y
Cn1ncc2c(=O)[nH]c(CCC(=O)N3CC=C(C(=O)O)C3)nc21 [Z6689]	Y
Cn1ncc2ncnc(NS(=O)(=O)Cc3ccc(CC#N)cc3)c21 [Z6742]	Y
Cn1ccn2c(CCNC(=O)[C@H]3C[C@H]3C(=O)O)nnc2c1=O [Z6744]	Y
O=C(NC1c2cccc(O)c2CC1C(=O)O)c1ccc2[nH]ccc2c1 (centres unmarked) [Z8539_2004]	Y
O=C(NCc1c(C(=O)O)[nH]c2ccccc12)c1ccc2[nH]cnc2c1 [Z8539_2005]	Y
O=C(NCc1c(C(=O)O)[nH]c2ccccc12)c1ccc2[nH]c(O)nc2c1 [Z8539_2006]	Y

Each compound was assayed against T1, SARS-CoV-2 NSP3 Mac1 (Severe acute respiratory syndrome coronavirus 2, UniProt P0DTD1) (assay: not given). Details: PanDDA event map background density correction; crystal soak, compound concentration 100 mM.
Format: binding

SMILES	1-BDC
O=C(O)c1csc(CCNC(=O)c2cc3[nH]cnc3cc2F)n1 [Z5740]	0.1
CNc1cnc(C(=O)N2CC(c3noc(O)n3)C2)cn1.O=C(O)C(F)(F)F [Z6567]	0.31
Cn1ncc2c(=O)[nH]c(CCC(=O)N3CC=C(C(=O)O)C3)nc21 [Z6689]	0.17
Cn1ccn2c(CCNC(=O)[C@H]3C[C@H]3C(=O)O)nnc2c1=O [Z6744]	0.3
O=C(NC1c2cccc(O)c2CC1C(=O)O)c1ccc2[nH]ccc2c1 (centres unmarked) [Z8539_2004]	0.41 and 0.22
O=C(NCc1c(C(=O)O)[nH]c2ccccc12)c1ccc2[nH]cnc2c1 [Z8539_2005]	0.21 and 0.19
O=C(NCc1c(C(=O)O)[nH]c2ccccc12)c1ccc2[nH]c(O)nc2c1 [Z8539_2006]	0.05

Same assay, conditions: PanDDA event map, 1 minus background density correction; crystal soaking of Mac1

SMILES	1-BDC (PanDDA)
O=C(O)c1csc(CCNC(=O)c2cc3[nH]cnc3cc2F)n1 [Z5740]	0.1
CNc1cnc(C(=O)N2CC(c3noc(O)n3)C2)cn1.O=C(O)C(F)(F)F [Z6567]	0.31
CCNc1ncc(C(=O)NCCn2cnc(C(=O)O)c2)s1 [Z6684]	0.1
Cn1ncc2c(=O)[nH]c(CCC(=O)N3CC=C(C(=O)O)C3)nc21 [Z6689]	0.17
Cn1ccn2c(CCNC(=O)[C@H]3C[C@H]3C(=O)O)nnc2c1=O [Z6744]	0.3
O=C(NC1c2cccc(O)c2CC1C(=O)O)c1ccc2[nH]ccc2c1 (centres unmarked) [Z8539_2004]	0.22
O=C(NCc1c(C(=O)O)[nH]c2ccccc12)c1ccc2[nH]cnc2c1 [Z8539_2005]	0.19
O=C(NCc1c(C(=O)O)[nH]c2ccccc12)c1ccc2[nH]c(O)nc2c1 [Z8539_2006]	0.05

Same assay, conditions: PanDDA event map; crystal soak, Compound_concentration 100 mM, Echo_dispense_volume 40 nl

SMILES	1-BDC
CCNc1ncc(C(=O)NCCn2cnc(C(=O)O)c2)s1 [Z6684]	0.1
O=C(NCc1c(C(=O)O)[nH]c2ccccc12)c1ccc2[nH]cnc2c1 [Z8539_2005]	0.24

Same assay, conditions: crystal soak, Compound_concentration 100 mM, Echo_dispense_volume 40 nl; PanDDA run (background map) dmso_34, nohits_35 or nohits_62

SMILES	PanDDA hit?
CCNc1ncc(C(=O)NCCn2cnc(C(=O)O)c2)s1 [Z6684]	TRUE
O=C(NCc1c(C(=O)O)[nH]c2ccccc12)c1ccc2[nH]cnc2c1 [Z8539_2005]	TRUE

Same assay, conditions: ligand modeled in the crystal structure; crystal soak, compound concentration 100 mM

SMILES	Modeled?
O=C(O)c1csc(CCNC(=O)c2cc3[nH]cnc3cc2F)n1 [Z5740]	TRUE
CNc1cnc(C(=O)N2CC(c3noc(O)n3)C2)cn1.O=C(O)C(F)(F)F [Z6567]	TRUE
Cn1ncc2c(=O)[nH]c(CCC(=O)N3CC=C(C(=O)O)C3)nc21 [Z6689]	TRUE
Cn1ccn2c(CCNC(=O)[C@H]3C[C@H]3C(=O)O)nnc2c1=O [Z6744]	TRUE
O=C(NC1c2cccc(O)c2CC1C(=O)O)c1ccc2[nH]ccc2c1 (centres unmarked) [Z8539_2004]	TRUE
O=C(NCc1c(C(=O)O)[nH]c2ccccc12)c1ccc2[nH]cnc2c1 [Z8539_2005]	TRUE
O=C(NCc1c(C(=O)O)[nH]c2ccccc12)c1ccc2[nH]c(O)nc2c1 [Z8539_2006]	TRUE

Same assay, conditions: ligand modeled; crystal soak, Compound_concentration 100 mM, Echo_dispense_volume 40 nl

SMILES	Modeled?
CCNc1ncc(C(=O)NCCn2cnc(C(=O)O)c2)s1 [Z6684]	TRUE

Same assay, conditions: ligand occupancy after refinement (phenix.refine); crystal soaking of Mac1

SMILES	Refined occupancy
O=C(O)c1csc(CCNC(=O)c2cc3[nH]cnc3cc2F)n1 [Z5740]	20
CNc1cnc(C(=O)N2CC(c3noc(O)n3)C2)cn1.O=C(O)C(F)(F)F [Z6567]	62
CCNc1ncc(C(=O)NCCn2cnc(C(=O)O)c2)s1 [Z6684]	20
Cn1ncc2c(=O)[nH]c(CCC(=O)N3CC=C(C(=O)O)C3)nc21 [Z6689]	34
Cn1ccn2c(CCNC(=O)[C@H]3C[C@H]3C(=O)O)nnc2c1=O [Z6744]	60
O=C(NC1c2cccc(O)c2CC1C(=O)O)c1ccc2[nH]ccc2c1 (centres unmarked) [Z8539_2004]	44
O=C(NCc1c(C(=O)O)[nH]c2ccccc12)c1ccc2[nH]cnc2c1 [Z8539_2005]	38
O=C(NCc1c(C(=O)O)[nH]c2ccccc12)c1ccc2[nH]c(O)nc2c1 [Z8539_2006]	10

Each compound was assayed against T1, SARS-CoV-2 NSP3 Mac1 (assay: not given). Details: maximum shift over tested concentrations; binder.
Parameters: contains a conserved macrodomain enzyme (Mac1); Differential scanning fluorimetry of Mac1, maximum thermal upshift

SMILES	DSF max dTma
CC1(C)CCC(C(=O)O)CN1C(=O)c1ncnc2[nH]ccc12 (centres unmarked) [F2804, FRESH00012962804]	0.62 °C
CC1(C(=O)O)CCN(C(=O)Cc2c[nH]c3nccc(Cl)c23)C1 (centres unmarked) [F4848, FRESH00014134848]	0.07 °C
CC1CC(C(=O)O)N1C(=O)c1cc(O)nc2ccc(F)cc12.O=C(O)C(F)(F)F (centres unmarked) [R0658, REAL300007260658]	0.37 °C
CC1C(C(=O)O)CCCN1S(=O)(=O)c1c[nH]c2ncc(Cl)cc12 (centres unmarked) [R3575, REAL300016493575]	0.15 °C
Nc1ncnc(N2CCCC(CCC(=O)O)C2)c1Cl (centres unmarked) [R6134, REAL250003296134]	0.34 °C
Cc1nnc(CNc2cnc(N)c(Cl)n2)n1C1CC1 [Z1964, ZINC000893101964]	0.12 °C
O=C(Cc1ccc(-n2cccn2)cc1)OCC1CCCNC1=O (centres unmarked) [Z5505, ZINC000835985505]	0.16 °C

Each compound was assayed against T1, SARS-CoV-2 NSP3 Mac1 (assay: biochemical). Details: HTRF ADPr-conjugated peptide displacement; read-out: IC50.
Format: binding

SMILES	IC50
O=C(NC1C=CC(C(=O)O)C1)c1ncnc2sccc12 (centres unmarked) [Z6645]	69.4 µM
Cn1ncc2ncnc(NS(=O)(=O)Cc3ccc(CC#N)cc3)c21 [Z6742]	42.4 µM
O=C(NC1c2cccc(O)c2CC1C(=O)O)c1ccc2[nH]ccc2c1 (centres unmarked) [Z8539_2004]	7.2 µM
O=C(NCc1c(C(=O)O)[nH]c2ccccc12)c1ccc2[nH]cnc2c1 [Z8539_2005]	24.5 µM
O=C(NCc1c(C(=O)O)[nH]c2ccccc12)c1ccc2[nH]c(O)nc2c1 [Z8539_2006]	15.8 µM

Same assay, conditions: read-out: Ki***

SMILES	Ki
O=C(NC1C=CC(C(=O)O)C1)c1ncnc2sccc12 (centres unmarked) [Z6645]	60.4 µM
Cn1ncc2ncnc(NS(=O)(=O)Cc3ccc(CC#N)cc3)c21 [Z6742]	36.9 µM
O=C(NC1c2cccc(O)c2CC1C(=O)O)c1ccc2[nH]ccc2c1 (centres unmarked) [Z8539_2004]	6.3 µM
O=C(NCc1c(C(=O)O)[nH]c2ccccc12)c1ccc2[nH]cnc2c1 [Z8539_2005]	21.3 µM
O=C(NCc1c(C(=O)O)[nH]c2ccccc12)c1ccc2[nH]c(O)nc2c1 [Z8539_2006]	13.7 µM
